Measured values published in US8258130B2 (Sanofi, priority 2007, dated 2012).

What follows are molecules tested against human h-PGDS (Homo sapiens, UniProt O60760) (assay: Enzyme Immunoassay (EIA) method, inhibition of hematopoietic PGD2 synthase). Settings: EIA assay, PGD2 formed from PGH2 by human h-PGDS.
Type: biochemical
Procedure: Assay 2: Enzyme Immunoassay (EIA) Method
• a. Preparation of 0.1M K2HPO4/KH2PO4 buffer (pH 7.4) • Prepare 0.1 M KH2PO4 from 1M KH2PO4 (Sigma, Cat# P-8709) • Prepare 0.1 M K2HPO4 from powder of K2HPO4 (Fisher, BP363-500) • Mix 0.1 M K2HPO4 with 0.1 M KH2PO4 to adjust pH to 7.4. • b. Preparation of 0.5% γ-globulin • Add 0.1 g of γ-globulin (Sigma, Cat# G-5009) to 20 mL 0.1 M K2HPO4/KH2PO4 buffer (pH 7.4) and make 1-mL/vial aliquots and store in −80° C. • c. Preparation of 100 mM GSH • Add 307 mg of GSH (Sigma, Cat# G-6529) to 10 mL 0.1 M K2HPO4/KH2PO4 buffer (pH 7.4) and store at −80° C. • d. Preparation of Reaction buffer: • 198 mL of 0.1M K2HPO4/KH2PO4 buffer (pH 7.4) • 2 mM GSH—Prepared from 100 mM GSH • 0.4 g Glycerol • 2 mL of 0.5% γ-globulin • Add 0.4 g of glycerol and 2 mL of 0.5% γ-globulin to 198 mL of 0.1 M K2HPO4/KH2PO4 • buffer (pH7.4). • Add 0.4 mL of 100 mM GSH to 19.6 mL reaction buffer before the assay (enough for two 96-well plates). • e. Preparation of FeCl2/citric acid stopping solution: (8 mg/mL FeCl2, 0.1 M citric acid) • Add 40 mg fresh FeCl2 (IGN, Cat# 158046) to 5 mL 0.1 M citric acid (Sigma, Cat# C0759). • f. Preparation of MOX reagent: • 10% EtOH—Add 1 mL of EtOH to 9 mL of ultra pure H2O • Dissolve 0.1 g of methoxyl amine (Cayman, Cat# 400036/) in 10% EtOH (10 mL). • Add 0.82 g of sodium acetate (Cayman, Cat#400037) to MOX solution and dissolve. II. Materials and Method • Dimethylsulfoxide (DMSO; Sigma; Cat# D2650) • Prostaglandin D2-MOX express EIA kit (Caymen Chemical, Catalog No. 500151)
Before the assay, cool down 10 mL of acetone in polypropylene tubes and empty 96 well plates in ice. All the procedures except compound dilution are performed on ice.
• 1. Dilute compound in DMSO
• 2. Dilute 2 μL of each above concentration of compound to 38 μL of reaction buffer in 96-well plates and mix. IV. Enzyme and Substrate Solution Preparation • 1 Preparation of 0.39 ng/μL enzyme solution (0.35 ng/μL at final after compound addition). • Mix 4 μL of 4 mg/mL human h-PGDS with 396 μL of reaction buffer (to give enzyme concentration 40 μg/mL). Add 46.8 μL of 40 μg/mL h-PGDS to 4.753 mL of reaction buffer to give a total volume of 4.8 mL • 2. Preparation of Substrate Solution (PGH2): Add 0.375 mL of 0.1 mg/mL of PGH2 to 1.625 mL acetone. V. Enzyme Reaction: • 1. Add 60 μL of enzyme solution to compound well and positive control (without compound) in U-bottom polypropylene plate on ice. • 2. Add 60 μL of reaction buffer and 6.6 μL of 5% DMSO in reaction buffer into negative control wells in the plate. • 3. Add 6.6 μL of diluted compound in reaction buffer to the compound wells and mix. • 4. Add 6.6 μL of 5% DMSO in reaction buffer to the positive control well. • 5. Incubate the plate in ice for at least 30 min. • 6. Add 20 μL of substrate (PGH2) solution to compound, negative and positive control wells in the U-bottom 96 well plate on ice. • 7. Dry the plate in cold room for about 25-28 min. • 8. Pipette 45 μL of enzyme solution (above) into 96-wells with dried PGH2 and mix 3 times. Incubate on the ice for 1 min. • 9. Add 45 μL of FeCl2 solution into each wells and mix. • 10. Add 90 μL of MOX solution and mix. • 11. Incubate for 30 min at 60° C. • 12. Dilute the samples 2500× with EIA buffer. VI. EIA Assay • Perform the assay according to the procedure in EIA kit provided by Cayman. Total PGD2 levels (pg/mL) were determined in the samples by EIA kits (Caymen Chemical, Catalog No. 500151) Calculate Amount of PGD2 as Below • Calculated % Positive control according to the equation below; % Positive control=(Compound value−Negative control)/(Positive value−Negative control value)×100. […]

human h-PGDS, sequence (O60760 whole entry): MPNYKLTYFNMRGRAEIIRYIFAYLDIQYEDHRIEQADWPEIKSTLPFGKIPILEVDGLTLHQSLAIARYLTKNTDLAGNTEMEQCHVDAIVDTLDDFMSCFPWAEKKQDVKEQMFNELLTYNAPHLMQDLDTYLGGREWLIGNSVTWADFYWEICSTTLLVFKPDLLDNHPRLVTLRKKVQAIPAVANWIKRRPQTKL

SMILES	IC50 [nM]
O=C(NN1CCc2ccccc21)c1cnc(-c2ccccn2)nc1 [Example 103, 2-Pyridin-2-yl-pyrimidine-5-carboxylic acid (2,3-dihydro-indol-1-yl)-amide]	3
O=C(Nn1ccc2ccccc21)c1cnc(-c2ccccn2)nc1 [Example 104, 2-Pyridin-2-yl-pyrimidine-5-carboxylic acid indol-1-yl-amide]	4.5
O=C(Nn1ccc2ccccc21)c1cnc(-c2cccc(F)c2)nc1 [Example 105, 2-(3-Fluoro-phenyl)-pyrimidine-5-carboxylic acid indol-1-yl-amide]	5
Cc1nc(-c2cccc(F)c2)ncc1C(=O)NN1CCc2ccccc21 [Example 106, 2-(3-Fluoro-phenyl)-4-methyl-pyrimidine-5-carboxylic acid (2,3-dihydro-indol-1-yl)-amide]	23
Cc1cc2ccccc2n1NC(=O)c1cnc(-c2cccc(F)c2)nc1 [Example 108, 2-(3-Fluoro-phenyl)-pyrimidine-5-carboxylic acid (2-methyl-indol-1-yl)-amide]	6
Cc1nc(-c2cccc(F)c2)ncc1C(=O)Nn1ccc2ccccc21 [Example 109, 2-(3-Fluoro-phenyl)-4-methyl-pyrimidine-5-carboxylic acid indol-1-ylamide]	10
Cc1nc(-c2ccccn2)ncc1C(=O)NN1CCc2ccccc21 [Example 110, 4-Methyl-2-pyridin-2-yl-pyrimidine-5-carboxylic acid (2,3-dihydro-indol-1-yl)-amide]	3
Cc1nc(-c2ccccn2)ncc1C(=O)Nn1ccc2ccccc21 [Example 111, 4-Methyl-2-pyridin-2-yl-pyrimidine-5-carboxylic acid indol-1-ylamide]	5
CS(=O)(=O)c1ccc2ccn(NC(=O)c3cnc(-c4cccc(F)c4)nc3)c2c1 [Example 113, 2-(3-Fluoro-phenyl)-pyrimidine-5-carboxylic acid (6-methanesulfonyl-indol-1-yl)-amide]	8
O=C(Nn1ccc2ncccc21)c1cnc(-c2cccc(F)c2)nc1 [Example 118, 2-(3-Fluoro-phenyl)-pyrimidine-5-carboxylic acid pyrrolo[3,2-b]pyridin-1-ylamide]	18
COc1ccccc1-c1ncc(C(=O)NN2CC(C)=NNC2=O)cn1 [Example 120, 2-(2-Methoxy-phenyl)-pyrimidine-5-carboxylic acid (6-methyl-3-oxo-2,5-dihydro-3H-[1,2,4]triazin-4-yl)-amide]	199
Cc1nc(-c2cccc(F)c2)ncc1C(=O)Nn1ccc2cccnc21 [Example 122, 2-(3-Fluoro-phenyl)-4-methyl-pyrimidine-5-carboxylic acid pyrrolo[2,3-b]pyridin-1-ylamide]	12
Cc1nc(-c2ccccn2)ncc1C(=O)Nn1ccc2cc(F)ccc21 [Example 123, 4-Methyl-2-pyridin-2-yl-pyrimidine-5-carboxylic acid (5-fluoro-indol-1-yl)-amide]	17
O=C(Nn1ccc2cc(F)ccc21)c1cnc(-c2ccccn2)nc1 [Example 124, 2-Pyridin-2-yl-pyrimidine-5-carboxylic acid (5-fluoro-indol-1-yl)-amide]	18
Cc1nc(-c2ccccn2)ncc1C(=O)Nn1ccc2ncccc21 [Example 127, 4-Methyl-2-pyridin-2-yl-pyrimidine-5-carboxylic acid pyrrolo[3,2-b]pyridin-1-ylamide]	13
Cc1nc(-c2cccc(F)c2)ncc1C(=O)Nn1ccc2ccncc21 [Example 128, 2-(3-Fluoro-phenyl)-4-methyl-pyrimidine-5-carboxylic acid pyrrolo[2,3-c]pyridin-1-ylamide]	28.5
Cc1nc(-c2cccnc2)ncc1C(=O)Nn1ccc2ncccc21 [Example 130, 4-Methyl-2-pyridin-3-yl-pyrimidine-5-carboxylic acid pyrrolo[3,2-b]pyridin-1-ylamide]	14
Cc1nc(-c2cccc(F)c2)ncc1C(=O)Nn1ccc2cc(F)ccc21 [Example 132, 2-(3-Fluoro-phenyl)-4-methyl-pyrimidine-5-carboxylic acid (5-fluoro-indol-1-yl)-amide]	19
COc1ccc2c(ccn2NC(=O)c2cnc(-c3cccc(F)c3)nc2C)c1 [Example 133, 2-(3-Fluoro-phenyl)-4-methyl-pyrimidine-5-carboxylic acid (5-methoxy-indol-1-yl)-amide]	6
CC1=NNC(=O)N(NC(=O)c2cnc(-c3cccc(O)c3)nc2)C1 [Example 154, 2-(3-Hydroxy-phenyl)-pyrimidine-5-carboxylic acid (6-methyl-3-oxo-2,5-dihydro-3H-[1,2,4]triazin-4-yl)-amide]	21
Cc1nc(-c2ncccn2)ncc1C(=O)Nn1cc(C)c2cc(F)ccc21 [Example 157, 4-Methyl-[2,2′]bipyrimidinyl-5-carboxylic acid (5-fluoro-3-methyl-indol-1-yl)-amide]	4.5
Cc1nc(-c2cccc(F)c2)ncc1C(=O)Nn1cc(C(N)=O)c2cc(F)ccc21 [Example 162, 5-Fluoro-1-{[2-(3-fluoro-phenyl)-4-methyl-pyrimidine-5-carbonyl]-amino}-1H-indole-3-carboxylic acid amide]	8
Cc1nc(-c2cccc(F)c2)ncc1C(=O)Nn1cc(C(C)(C)C(=O)O)c2cc(F)ccc21 [Example 164, 2-(5-Fluoro-1-{[2-(3-fluoro-phenyl)-4-methyl-pyrimidine-5-carbonyl]-amino}-1H-indol-3-yl)-2-methyl-propionic acid]	7
Cc1nc(-c2nccs2)ncc1C(=O)Nn1cc(CCC(C)(C)O)c2cc(F)ccc21 [Example 172, 4-Methyl-2-thiazol-2-yl-pyrimidine-5-carboxylic acid [5-fluoro-3-(3-hydroxy-3-methyl-butyl)-indol-1-yl]-amide]	5
CCc1cn(NC(=O)c2cnc(-c3ncccn3)nc2C)c2ccc(C(F)(F)F)cc12 [Example 176, 4-Methyl-[2,2′]bipyrimidinyl-5-carboxylic acid (3-ethyl-5-trifluoromethyl-indol-1-yl)-amide]	8
Cc1nc(-c2cccc(F)c2)ncc1C(=O)NN(c1ccccc1)c1ccccc1 [Example 190, 2-(3-Fluoro-phenyl)-4-methyl-pyrimidine-5-carboxylic acid N′,N′-diphenyl-hydrazide]	16
CCc1cn(NC(=O)c2cnc(-c3cccc(F)c3)nc2C)c2cnccc12 [Example 195, 2-(3-Fluoro-phenyl)-4-methyl-pyrimidine-5-carboxylic acid (3-ethyl-pyrrolo[2,3c]pyridin-1-yl)-amide]	7
Cc1nc(-c2cccc(F)c2)ncc1C(=O)Nn1cc(C)c2ncccc21 [Example 197, 2-(3-Fluoro-phenyl)-4-methyl-pyrimidine-5-carboxylic acid (3-methyl-pyrrolo [32-b]pyridin-1-yl)-amide]	2
